Patent publication US8741653B2, “Single recombination system and methods of use” (priority 2008, dated 2014)

Key:
MVA = assay type: cell-based, Modified Vaccinia Ankara virus

CN(C)[C@@H]1C(O)=C(C(N)=O)C(=O)[C@@]2(O)C(O)=C3C(=O)c4c(O)cccc4[C@@](C)(O)[C@H]3C[C@@H]12 [tetracycline]
reduction of MVA replication (MVA): 1 log | cytotoxic effect of tetracycline (CEF cells): pronounced cytotoxic effect
